Results on ten compounds are retold here after US6372740B1, “2-aryl-8-oxodihydropurine derivative, process for the producing the same, medicinal compositions containing the same, and intermediates thereof” (Dainippon Pharmaceutical Co., Ltd., priority 1997, dated 2002).

The target in one data set is T1, BZω3 receptor (Rattus norvegicus, UniProt P16257).
T1 construct: from tissue; host or cells: rat (Wistar) kidney membrane fraction
Description: BZω3 (peripheral) benzodiazepine receptor binding assay, [3H] 4'-chlorodiazepam (Ro 5-4864). Particulars: rat kidney membrane, [3H] Ro 5-4864 0.5 nM, 150 minutes at 0° C.; read-out: ω3 IC50. On the procedure: Experiment 1: Central (ω1,ω2) and Peripheral (ω3) Benzodiazepine Receptor Binding Assays
BZω1 and BZω2 receptor binding assays and the preparation of receptor membrane fractions therefor were carried out according to the method of Stephens, D. N. et al. [cf., J. Pharmacol. Exp. Ther., 253, 334-343 (1990)], and BZω3 receptor binding assay and the preparation of receptor membrane fraction therefor were done according to the method of Schoemaker, H. [cf, J. Pharmacol. Exp. Ther., 225, 61-69 (1983)] each with slight modification.
Receptor membrane fractions for ω1, ω2 and ω3 were prepared from the cerebellum (ω1), spinal cord (ω2) or kidney (ω3) in 7-8 week old male rats of Wistar strain, respectively, by the procedure described below.
After the cerebellum or spinal cord was homogenized with 20 volumes of ice-cold 50 mM Tris-citrate buffer (pH 7.1), the homogenate was centrifuged for 15 minutes at 40,000 g. The pellet obtained was washed 4 times by the same procedure, and frozen and stored for 24 hours at −60° C. The resulting pellet, after being thawed, washed with the buffer and centrifuged, was suspended in the buffer I for the binding assay (50 mM Tris-HCl buffer containing 120 mM NaCl, 5 mM KCl, 2 mM CaCl2 and 1 mM MgCl2; pH 7.4) and the suspension thus obtained (containing 1 g wet tissue/40 ml) was used for the BZω1 and BZω2receptor binding assays. On the other hand, the kidney was homogenized with 20 volumes of the ice-cold buffer II for the binding assay (50 mM Na-K phosphate buffer containing 100 mM NaCl; pH 7.4), and the mixture was filtered through 4 sheets of gauze, and centrifuged for 20 minutes at 40,000 g. The pellet obtained was suspended in the buffer II and the suspension (containing 1 g wet tissue/100 ml) was used for the binding assay as BZω3 receptor membrane source.
[^3H] Flumazenil (Ro 15-1788) (final concentration: 0.3 nM for ω1, and 1 nM for ω2) and flunitrazepam (final concentration: 10 μM) were used for the BZω1 or BZω2 receptor binding assays as the isotope-labeled and unlabeled ligands, respectively. For the BZω3 receptor binding assay, [^3H] 4′-chlorodiazepam (7-chloro-1,3-dihydro-1-methyl-5-(4-chlorophenyl)-2H-1,4-diazepin-2-one) (Ro 5-4864) (final concentration: 0.5 nM) and diazepam (final concentration: 100 μM) were used as the isotope-labeled and unlabeled ligands, respectively. Incubation was performed for 30 minutes at 37° C. in the BZω1 or BZω2 receptor binding assays, and for 150 minutes at 0° C. in the BZω3 receptor binding assay. The BZω1 or BZω2 receptor binding assays were carried out in the presence of bicuculline (final concentration: 100 μM).
The binding assay was performed by the following procedure. After adding each test compound at certain known concentrations, a [^3H] ligand, and the buffer I or II to each test tube, each assay was started by addition of membrane preparation (total volume of 1 ml). After incubation, the assay was terminated by filtration with suction through a Whatman GF/B glass fiber filter using a cell harvester (Brandel, USA). The filters were rapidly washed 3 times with 5 ml of ice-cold 50 mM Tris-HCl buffer (pH 7.7) for ω1 and ω2, or the buffer II for ω3, and transferred to scintillation vials containing 10 ml liquid scintillation cocktail (ACS-II, Amersham, USA). After being allowed to stand for a specific period, retained radioactivity was counted by a liquid scintillation spectrometer. Specific binding of [^3H] ligands was calculated as the difference between amounts of radioactivity bound in the presence and absence of excess unlabeled ligands. The concentration of the test compounds causing 50% inhibition of specific binding of the [3H] ligand (IC50) was determined by probit analysis.

Data set [1] has as its system mice (stay in light compartment). Description: Light and dark box test (anti-anxiety effect). Particulars: Mus musculus, po, 0.5 h, male Std-ddY mice, 30 minutes before test, Dunnett test 5%, read-out: Anti-anxiety effect MED (minimum effective dose). Format: in vivo. An excerpt: Experiment 2: Light and Dark Box Test (Anti-anxiety Effect)
Anti-anxiety effect of test compounds was examined in a box with light and dark compartments according to the method of Crawley, J. and Goodwin, F. K. [cf., Pharmacol. Biochem. Behav., 13, 167-170 (1980)] with slight modification.
Light and dark box test is a useful, simple and handy method for behaviorally and pharmacologically examining anti-anxiety effect of the drugs, by utilizing the habit of rodents such as mice and rats, etc. which prefer to stay in a dark place, and regarding as positive drug effect the increase of the relative stay of the animals in the light compartment which is an uncomfortable place for the animals. A number of drugs such as cholecystokinin B type receptor antagonists and benzodiazepine drugs, show positive effect in this test.
Light and dark box test was carried out using the test box device (35×17×15 cm) which comprises: a light compartment (20×17×15 cm) consisting of transparent acrylic plates and highly illuminated by an incandescent lamp (1,700 lux); a dark compartment (15×17×15 cm) being made of black acrylic plates connected to the light compartment; and at the boundary of compartments, an opening (4.4×5.0 cm) in which mice can go through freely between two compartments.
Male mice of Std-ddY strain weighing 25-30 g were used in a group of 10. Each trial was started by placing a mouse in the center of the light compartment 30 minutes after oral administration of a test compound, and the time spent by the mouse in the light compartment during a 5 minute observation period was measured, and the rate of the stay of mice in the light compartment to the whole time spent in the experiment was calculated (rate of light compartment stay, %).
The anti-anxiety effect of the test compound was represented by the minimum effective dose (MED) at which the increasing rate of the relative stay in the light compartment was regarded as statistically significant (Dunnett test, significance level: 5%). 4.

The test system of another data set is mice (lethality). Description: Acute toxicity. Particulars: male Std-ddY mice, oral 2000 mg/kg, observed for 7 days. It is filed as in vivo, mouse. On the procedure: Experiment 4: Acute Toxicity
Male mice of Std-ddY strain weighing 25-30 g were used in a group of 10 animals for examining on the compound of Example 1. A test compound was suspended in 0.5% tragacanth and administered orally to the mice at a dose of 2000 mg/kg.

For data set [2], the system named is mice (isoniazid-induced clonic convulsion). Description: Isoniazid-induced clonic convulsion test (anti-convulsant effect). Format: in vivo, mouse. Particulars: male Std-ddY mice, oral, 30 minutes before isoniazid 200 mg/kg s.c.; dose prolonging onset time by 25%. An excerpt:
Experiment 3: Isoniazid-induced Clonic Convulsion Test (Anti-convulsant Effect)
Isoniazid inhibits glutamate decarboxylase that catalyzes GABA biosynthesis, decrease brain GABA levels, and induces clonic convulsion. According to the method of Auta, J. et al. [cf., J. Pharmacol. Exp. Ther., 265, 649-656 (1993)] with slight modification, antagonistic effects of the test compounds on isoniazid-induced clonic convulsion were examined. […] Such drugs are BZ receptor agonists represented by diazepam, neurosteroids such as allopregnanolone, allotetrahydro-deoxycorticosterone (THDOC) and BZω3 receptor agonists, which enhance the synthesis of neurosteroids.
Male mice of Std-ddY strain weighing 22-24 g were used in a group of 6. Thirty minutes after oral administration of the test compounds, mice were injected with isoniazid (200 mg/kg) subcutaneously, and immediately thereafter, the mice were placed individually in plastic observation cages. The onset time of clonic convulsion was measured (cut-off time: 90 minutes). The latency in the control group was about 40 minutes.
Anti-isoniazid effect of the test compounds was expressed by the dose, which prolonged the onset time by 25% compared to that in the vehicle group (ED25). The ED25 value was calculated according to the Probit method.

As usually defined, the IC50 is the concentration that inhibits the measured activity by half. What is called melting point is the temperature, or range, at which the solid turns liquid.

For the compound `CCN(C(=O)Cn1c(=O)n(C)c2nc(-c3ccccc3)ncc21)c1ccccc1` [Example 1, N-ethyl-8,9-dihydro-9-methyl-8-oxo-2-phenyl-N-phenyl-7H-purin-7-acetamide], the IC50 on BZω3 receptor is 2 nM. Moreover, the minimal effective dose in data set [1] lay within 1 to 3 µg/kg. Also, in the data set on mice (lethality), the lethality entry is recorded as “no lethality”.

`CCN(C(=O)Cn1c(=O)n(C)c2nc(-c3ccc(F)cc3)ncc21)c1ccccc1` [Example 12, N-ethyl-8,9-dihydro-2-(4-fluorophenyl)-9-methyl-8-oxo-N-phenyl-7H-purin-7-acetamide]: the melting point lay in the range of 211 to 212 °C. Besides, the IC50 on BZω3 receptor came out at 1.5 nM. Besides, the minimal effective dose in data set [1] was 10 µg/kg.

For `CN(Cc1ccccc1)C(=O)Cn1c(=O)n(C)c2nc(-c3ccc(F)cc3)ncc21` [Example 50], the melting point fell in the range of 170 to 171 °C. The IC50 on BZω3 receptor is 0.79 nM. In data set [1], the minimal effective dose worked out at 100 µg/kg.

As to `CCCN(CCC)C(=O)Cn1c(=O)n(C)c2cnc(-c3ccccc3)nc21` [Example 106, 7,8-dihydro-7-methyl-8-oxo-2-phenyl-N,N-dipropyl-9H-purin-9-acetamide], at BZω3 receptor, the IC50 was determined as 1.2 nM. In addition, the minimal effective dose in data set [1] was 1 to 3 µg/kg. The “Anti-convulsant effect ED25” value in data set [2] was 100 mg/kg.

`CCCN(CCC)C(=O)Cn1c(=O)n(CC)c2cnc(-c3ccccc3)nc21` [Example 107, 7-ethyl-7,8-dihydro-8-oxo-2-phenyl-N,N-dipropyl-9H-purin-9-acetamide] showed a melting point of 98 to 99 °C. The IC50 at BZω3 receptor was 0.66 nM. The minimal effective dose in data set [1] lay in the range of 1 to 3 µg/kg. For the same compound, the “Anti-convulsant effect ED25” value in data set [2] amounted to 33.0 mg/kg.

`CCCN(CCC)C(=O)Cn1c(=O)n(C)c2cnc(-c3ccc(Cl)cc3)nc21` [Example 112] registered a melting point of 135 to 137 °C. At BZω3 receptor, the IC50 was determined as 0.73 nM. The “Anti-convulsant effect ED25” value in data set [2] was found to be 73.6 mg/kg.

As for `CCCN(CCC)C(=O)Cn1c(=O)n(CC)c2cnc(-c3ccc(Cl)cc3)nc21` [Example 116], the melting point lay within 158 to 159 °C. On BZω3 receptor, the IC50 worked out at 2.1 nM. Also, in data set [1], the minimal effective dose amounted to 10 µg/kg.

Consider `CN(Cc1ccccc1)C(=O)Cn1c(=O)n(C)c2cnc(-c3ccc(Cl)cc3)nc21` [Example 137, N-benzyl-7,8-dihydro-N-methyl-7-methyl-8-oxo-2-(4-chlorophenyl)-9H-purin-9-acetamide], for which the melting point was 241 to 242 °C. Moreover, the IC50 at BZω3 receptor was found to be 1.3 nM. In addition, the minimal effective dose in data set [1] fell in the range of 1 to 3 µg/kg.

In turn, `CCN(Cc1ccccc1)C(=O)Cn1c(=O)n(C)c2cnc(-c3ccc(Cl)cc3)nc21` [Example 147, N-benzyl-N-ethyl-7,8-dihydro-7-methyl-8-oxo-2-(4-chlorophenyl)-9H-purin-9-acetamide] registered a melting point of 172 to 173 °C. The IC50 on BZω3 receptor was 1.1 nM. The minimal effective dose in data set [1] fell in the range of 1 to 3 µg/kg.

Compound `COc1ccc(N(C)C(=O)Cn2c(=O)n(C)c3cnc(-c4ccccc4)nc32)cc1` [Example 163] came in with a melting point of 172 to 174 °C. For the same compound, the IC50 on BZω3 receptor worked out at 0.73 nM. The minimal effective dose in data set [1] was 100 µg/kg.
